Test results taken from patent US8828907B2, “Active ingredient combinations having insecticidal and acaricidal properties” (Bayer CropScience AG, priority 2009, dated 2014).

Key:
Format in all cases: in vivo
Conditions in all cases: single active compound
[1] = system: green peach aphid (Myzus persicae); assay: Myzus persicae test (spray on infested cabbage leaves)
Procedure: (§1) Solvents: 78 parts by weight of acetone • • 1.5 parts by weight of dimethylformamide
(§2) Emulsifier: 0.5 part by weight of alkylaryl polyglycol ether
(§3) To produce a suitable preparation of active compound, 1 part by weight of active compound is mixed with the stated amount of solvent and emulsifier, and the concentrate is diluted with emulsifier-containing water to the desired concentration.
Cabbage leaves (Brassica oleracea) which are heavily infested by the green peach aphid (Myzus persicae) are treated by spraying with the active compound preparation of the desired concentration.
After the desired period of time, the kill in % is determined. 100% means that all of the aphids have been killed; 0% means that none of the aphids have been killed. The kill rates determined are entered into Colby's formula (see above).

[2] = system: greenhouse red spider mite (Tetranychus urticae); assay: Tetranychus urticae test (OP-resistant/spray treatment)
Procedure: as §1, §2, §3
Discs of bean leaves (Phaseolus vulgaris) which are infested by all stages of the greenhouse red spider mite (Tetranychus urticae) are sprayed with an active compound preparation of the desired concentration.
After the desired period of time, the effect in % is determined. 100% means that all of the spider mites have been killed; 0% means that none of the spider mites have been killed.

[3] = system: larvae of the armyworm (Spodoptera frugiperda); assay: Spodoptera frugiperda larvae test (sprayed cabbage leaves)
Procedure: as §1, §2, §3
Cabbage leaves (Brassica oleracea) are treated by being sprayed with the preparation of active compound of the desired concentration and are populated with larvae of the armyworm (Spodoptera frugiperda) while the leaves are still moist.
After the desired period of time, the kill in % is determined. 100% means that all caterpillars have been killed; 0% means that none of the caterpillars have been killed. The kill rates determined are entered into Colby's formula (see above).

[4] = system: larvae of the mustard beetle (Phaedon cochleariae); assay: Phaedon cochleariae larvae test (sprayed cabbage leaves)
Procedure: as §1, §2, §3
Cabbage leaves (Brassica oleracea) are treated by spraying with the active ingredient formulation of the desired concentration and populated with larvae of the mustard beetle (Phaedon cochleariae) while the leaves are still moist.
After the desired period of time, the kill in % is determined. 100% means that all beetle larvae have been killed; 0% means that none of the beetle larvae have been killed. The kill rates determined are entered into Colby's formula (see above).

| Compound | Kill in % after 1d ([1]; 0.8 g/ha) | Kill in % after 1d ([1]; 4 g/ha) | Kill in % after 6d ([2]; 20 g/ha) | Kill in % after 2d ([3]; 0.8 g/ha) | Kill in % after 2d ([4]; 100 g/ha) | Kill in % after 2d ([3]; 20 g/ha) | Kill in % after 6d ([2]; 100 g/ha) | Kill in % after 2d ([3]; 4 g/ha) | Kill in % after 2d ([4]; 4 g/ha) | Kill in % after 2d ([3]; 0.16 g/ha) |
| --- | --- | --- | --- | --- | --- | --- | --- | --- | --- | --- |
| O=C(NC(=O)c1c(F)cccc1F)Nc1ccc(Oc2ccc(C(F)(F)F)cc2Cl)cc1F [flufenoxuron, reference compound] | 0% | 0% | 0% | 33% | 0% |  |  |  |  |  |
| O=C(NC(=O)c1c(F)cccc1F)Nc1cc(Cl)c(OC(F)(F)C(F)C(F)(F)F)cc1Cl (stereo not drawn) [lufenuron, reference compound] |  | 0% |  |  | 17% |  |  |  |  |  |
| CN(Cc1cnc(Cl)c(F)c1)C1=CC(=O)OC1 [compound (I-6), 4-{[(6-chloro-5-fluorpyrid-3-yl)methyl](methyl)amino}furan-2(5H)-one] | 70% |  |  | 0% | 0% | 0% |  |  |  |  |
| O=C1C=C(N(Cc2ccc(Cl)nc2)CC(F)F)CO1 [compound (I-5), 4-{[(6-chloropyrid-3-yl)methyl](2,2-difluoroethyl)amino}furan-2(5H)-one] |  |  | 0% | 0% | 0% |  | 0% | 0% | 0% |  |
| COc1cccc(C(=O)NN(C(=O)c2cc(C)cc(C)c2)C(C)(C)C)c1C [methoxyfenozide, reference compound] |  | 0% |  |  |  | 83% | 0% | 33% |  |  |
| O=C(NC(=O)c1ccccc1Cl)Nc1ccc(OC(F)(F)F)cc1 [triflumuron, reference compound] | 0% | 0% |  | 33% |  |  |  |  | 0% | 50% |
| O=C1C=C(N(CCF)Cc2ccc(Cl)nc2)CO1 [compound (I-4), 4-{[(6-chloropyrid-3-yl)methyl](2-fluoroethyl)amino}furan-2(5H)-one] |  | 30% | 0% | 0% | 0% | 0% |  |  | 0% | 0% |
